Patent US20220017512A1 (SHANGHAI ENNOVABIO PHARMACEUTICALS CO., LTD., priority 2018, published 2022)

Key:
Assay type in all cases: biochemical
Recombinant human TRKA = target: T1, Recombinant human TRKA (Homo sapiens, UniProt P04629); test: In vitro activity test on TRKA kinase (HTRF KinEASE TK); conditions: 14.68 μM ATP, 40 min
T1 construct: purchased Carna Biosciences
Experimental: (§1) Biological Test Example 1 In Vitro Activity Test on TRKA, TRKB, TRKC Kinase
(§2) Recombinant human TRKA, TRKB, TRKC proteins were purchased from Carna Biosciences. HTRF KinEASE TK kit was purchased from Cisbio Bioassays. Synergy Neo 2 of Biotek was used to read the plate.
(§3) The tested compound was subjected to 3-fold serial dilution to reach a final concentration of 1 μM to 0.05 nM (10 concentrations), duplicates for each concentration; and the DMSO concentration in the detection reaction was 1%.
0.2 ng/μL TRKA protein kinase, 1 μM TK Substrate-biotin polypeptide substrate, 14.68 μM ATP, 1× enzymatic buffer, 5 mM MgCl2, and 1 mM DTT. The detection plate was White Proxiplate384-Plus plate (PerkinElmer), and incubated at room temperature for 40 min, and the assay volume was 10 μL.
(§4) 10 μL of detection reagent was added to the plate (containing 0.125 μM SA-XL665 and 5 μL 1×TK-Antibody) and incubated overnight at room temperature, and Synergy Neo 2 was used to read the plate.
(§5) The 665/620 Ratio was converted according to the following formula into inhibition rate (%)=(1−Ratiotest/Ratiomax)×100%. Ratiomax was a positive control without tested compound, and Ratiotest was the value of each concentration of different compounds. IC50 (nM) data was obtained by 4 parameter curve fitting (see Table 1).

Recombinant human TRKB = target: T2, Recombinant human TRKB (Homo sapiens, UniProt Q16620); test: In vitro activity test on TRKB kinase (HTRF KinEASE TK); conditions: 4.77 μM ATP, 50 min
T2 construct: purchased Carna Biosciences
T2 sequence (Q16620 32-822): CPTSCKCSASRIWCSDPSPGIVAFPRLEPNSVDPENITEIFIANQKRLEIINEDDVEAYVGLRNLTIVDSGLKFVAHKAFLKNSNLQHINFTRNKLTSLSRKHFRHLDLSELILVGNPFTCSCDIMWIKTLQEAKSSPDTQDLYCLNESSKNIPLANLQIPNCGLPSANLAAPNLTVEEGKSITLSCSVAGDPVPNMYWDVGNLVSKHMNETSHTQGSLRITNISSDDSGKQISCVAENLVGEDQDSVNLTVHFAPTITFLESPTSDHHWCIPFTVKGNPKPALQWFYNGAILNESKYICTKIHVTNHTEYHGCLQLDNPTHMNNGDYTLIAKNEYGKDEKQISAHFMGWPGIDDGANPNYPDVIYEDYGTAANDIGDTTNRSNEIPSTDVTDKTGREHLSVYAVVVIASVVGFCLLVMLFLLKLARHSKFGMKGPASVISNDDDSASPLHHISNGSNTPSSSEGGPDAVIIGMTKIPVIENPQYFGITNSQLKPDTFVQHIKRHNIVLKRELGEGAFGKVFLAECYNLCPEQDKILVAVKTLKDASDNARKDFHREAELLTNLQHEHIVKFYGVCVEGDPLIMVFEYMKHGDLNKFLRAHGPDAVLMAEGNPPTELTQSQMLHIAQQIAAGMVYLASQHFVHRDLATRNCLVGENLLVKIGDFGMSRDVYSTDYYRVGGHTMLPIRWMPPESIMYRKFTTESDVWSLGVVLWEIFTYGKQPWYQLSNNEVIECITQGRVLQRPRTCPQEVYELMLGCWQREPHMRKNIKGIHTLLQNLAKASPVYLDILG
Experimental: as §1, §2, §3
0.037 ng/μL TRKB protein kinase, 1 μM TK Substrate-biotin polypeptide substrate, 4.77 μM ATP, 1× enzymatic buffer, 5 mM MgCl2, and 1 mM DTT. The detection plate was White Proxiplate 384-Plus plate (PerkinElmer), and incubated at room temperature for 50 min, and the assay volume was 10 μL.
as §4, §5

Recombinant human TRKC = target: T3, Recombinant human TRKC (Homo sapiens, UniProt Q16288); test: In vitro activity test on TRKC kinase (HTRF KinEASE TK); conditions: 25.64 μM ATP, 40 min
T3 construct: purchased Carna Biosciences
T3 sequence (Q16288 32-839): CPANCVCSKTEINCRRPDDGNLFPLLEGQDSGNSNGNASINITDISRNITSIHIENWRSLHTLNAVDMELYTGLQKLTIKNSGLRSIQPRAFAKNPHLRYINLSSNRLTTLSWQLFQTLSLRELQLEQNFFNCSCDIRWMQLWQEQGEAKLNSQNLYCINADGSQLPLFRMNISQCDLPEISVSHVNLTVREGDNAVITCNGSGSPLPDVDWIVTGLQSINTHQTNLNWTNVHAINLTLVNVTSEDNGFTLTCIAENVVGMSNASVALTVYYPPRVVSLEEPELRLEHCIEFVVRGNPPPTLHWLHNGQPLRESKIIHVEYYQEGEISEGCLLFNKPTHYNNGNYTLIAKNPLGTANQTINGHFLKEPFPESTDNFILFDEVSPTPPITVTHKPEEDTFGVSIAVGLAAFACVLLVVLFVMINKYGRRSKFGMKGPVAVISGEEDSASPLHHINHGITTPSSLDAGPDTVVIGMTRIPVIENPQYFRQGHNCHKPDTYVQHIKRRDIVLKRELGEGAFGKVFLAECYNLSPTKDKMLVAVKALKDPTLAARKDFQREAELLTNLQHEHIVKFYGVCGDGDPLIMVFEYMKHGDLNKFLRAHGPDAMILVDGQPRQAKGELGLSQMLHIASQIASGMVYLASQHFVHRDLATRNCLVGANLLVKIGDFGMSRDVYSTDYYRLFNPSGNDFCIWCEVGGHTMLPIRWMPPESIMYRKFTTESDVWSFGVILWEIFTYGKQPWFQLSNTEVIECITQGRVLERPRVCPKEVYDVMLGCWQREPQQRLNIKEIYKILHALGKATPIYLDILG
Experimental: as §1, §2, §3
0.037 ng/μL TRKC protein kinase, 1 μM TK Substrate-biotin polypeptide substrate, 25.64 μM ATP, 1× enzymatic buffer, 5 mM MgCl2, and 1 mM DTT. The detection plate was White Proxiplate 384-Plus plate (PerkinElmer), and incubated at room temperature for 40 min, and the assay volume was 10 μL.
as §4, §5

[1] = target: T4, recombinant human TRKA (G595R) (Homo sapiens, UniProt P04629, G595R); test: In vitro activity test on mutant TRKA (G595R) (HTRF KinEASE TK); conditions: 4.5 μM ATP, 30 min
T4 construct: purchased SignalChem
T4 sequence (P04629 33-796 G595R): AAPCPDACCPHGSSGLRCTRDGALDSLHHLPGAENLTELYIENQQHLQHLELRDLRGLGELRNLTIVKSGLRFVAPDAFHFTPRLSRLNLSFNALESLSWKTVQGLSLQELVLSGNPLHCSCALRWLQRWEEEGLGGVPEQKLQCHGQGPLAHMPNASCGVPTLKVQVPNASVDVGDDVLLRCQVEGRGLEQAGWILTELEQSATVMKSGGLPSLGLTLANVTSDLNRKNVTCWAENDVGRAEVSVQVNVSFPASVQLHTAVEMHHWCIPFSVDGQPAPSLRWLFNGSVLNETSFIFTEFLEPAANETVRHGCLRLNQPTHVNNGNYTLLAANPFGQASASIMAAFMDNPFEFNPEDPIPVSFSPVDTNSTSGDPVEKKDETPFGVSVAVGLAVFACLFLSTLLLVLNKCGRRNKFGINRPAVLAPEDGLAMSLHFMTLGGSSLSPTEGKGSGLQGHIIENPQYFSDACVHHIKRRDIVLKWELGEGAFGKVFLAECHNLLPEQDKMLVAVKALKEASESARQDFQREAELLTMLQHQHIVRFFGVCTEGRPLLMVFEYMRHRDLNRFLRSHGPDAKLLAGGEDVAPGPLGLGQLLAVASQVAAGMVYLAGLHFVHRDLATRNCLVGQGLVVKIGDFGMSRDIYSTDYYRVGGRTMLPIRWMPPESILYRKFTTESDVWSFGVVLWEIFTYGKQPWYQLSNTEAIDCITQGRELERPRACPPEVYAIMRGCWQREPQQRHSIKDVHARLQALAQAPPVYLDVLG
Experimental: (§6) Biological Test Example 2 In Vitro Activity Test on Mutant TRKA (G595R), TRKA (G667C) and TRKC (G623R)
(§7) The recombinant human TRKA (G595R), TRKA (G667C) and TRKC (G623R) proteins were purchased from SignalChem. HTRF kinEASE TK kit was purchased from CisbioBioassays. Synergy Neo 2 of Biotek was used to read the plate.
(§8) The tested compound was subjected to 4-fold serial dilution to reach a final concentration of 1 μM to 0.004 nM (10 concentrates), duplicates for each concentration; and 1% DMSO was present in the detection reaction.
0.12 ng/μL TRKA (G595R) kinase, 1 μM TK Substrate-biotin polypeptide substrate, 4.5 μM ATP, 1× enzymatic buffer, 5 mM MgCl2, and 1 mm DTT. The detection plate was White Proxiplate384-Plus plate (PerkinElmer), and incubated at room temperature for 30 min, and the assay volume was 10 μL.
as §4
(§9) The value of 665/620 Ratio minus the value of negative control wells without enzyme, then the obtained value was converted according to the following formula into inhibition rate (%)=(1−Ratiotest/Ratiomax)×100%. Ratiomax was a positive control without tested compound, and Ratiotest was the value of each concentration of different compounds. IC50 (nM) data was obtained by 4 parameter curve fitting (see Table 1).

[2] = target: T5, recombinant human TRKA (G667C) (Homo sapiens, UniProt P04629, G667C); test: In vitro activity test on mutant TRKA (G667C) (HTRF KinEASE TK); conditions: 5.5 μM ATP, 30 min
T5 construct: purchased SignalChem
T5 sequence (P04629 33-796 G667C): as the sequence (P04629 33-796 G595R) above, with R563G, G635C counted along it
Experimental: as §6, §7, §8
0.026 ng/μL TRKA (G667C) kinase, 1 μM TK Substrate-biotin polypeptide substrate, 5.5 μm ATP, 1× enzymatic buffer, 5 mM MgCl2, and 1 mM DTT. The detection plate was White Proxiplate 384-Plus plate (PerkinElmer), and incubated at room temperature for 30 min, the assay volume was 10 μL.
as §4, §9

T1 sequence (P04629 33-796): as the sequence (P04629 33-796 G595R) above, with R563G counted along it

| Compound | IC50 (Recombinant human TRKA) [nM] | IC50 (Recombinant human TRKB) [nM] | IC50 (Recombinant human TRKC) [nM] | IC50 [1] [nM] | IC50 [2] [nM] |
| --- | --- | --- | --- | --- | --- |
| Fc1ccc(F)c([C@H]2C[C@H](F)CN2c2ccc3ncc(Cl)c(-c4cnc(C5CCNCC5)s4)c3n2)c1 [Example 50, 5-(3-Chloro-6-((2R,4S)-2-(2,5-difluorophenyl)-4-fluoropyrrolidin-1-yl)-1,5-naphthyridin-4-yl)-2-(piperidin-4-yl)thiazole] | < 1 | < 10 | < 10 | < 10 | < 10 |
| OC[C@@H](O)CN1CCC(n2cc(-c3c(Cl)cnc4ccc(N5C[C@@H](F)C[C@@H]5c5cc(F)ccc5F)nc34)cn2)CC1 [Example 44, (S)-3-(4-(4-(3-chloro-6-((2R,4S)-2-(2,5-difluorophenyl)-4-fluoropyrrolidin-1-yl)-1,5-naphthyridin-4-yl)-1H-pyrazol-1-yl)piperidin-1-yl)propane-1,2-diol] | < 1 | < 1 | < 1 | < 10 | < 1 |
| CC1(C)CC(n2cc(-c3ccnc4ccc(N5C[C@@H](F)C[C@@H]5c5cc(F)ccc5F)nc34)cn2)CCN1 (stereo partly drawn) [Example 18, 2-((2R,4S)-2-(2,5-difluorophenyl)-4-fluoropyrrolidin-1-yl)-8-(1-(2,2-dimethylpiperidin-4-yl)-1H-pyrazol-4-yl)-1,5-naphthyridine] | < 1 | < 1 | < 1 | < 10 | < 10 |
| NC(=O)c1cnc2ccc(N3C[C@@H](F)C[C@@H]3c3cc(F)ccc3F)nc2c1-c1cnn(C2CCNCC2)c1 [Example 37, 6-((2R,4S)-2-(2,5-difluorophenyl)-4-fluoropyrrolidin-1-yl)-4-(1-(piperidin-4-yl)-1H-pyrazol-4-yl)-1,5-naphthyridin-3-carboxamide] | < 1 | < 10 | < 10 | < 10 | < 50 |
| OC1CCC(Nc2ccnc3ccc(N4CCC[C@@H]4c4cc(F)ccc4F)nc23)C1 (stereo partly drawn) [Example 1, 3-((6-((R)-2-(2,5-difluorophenyl)pyrrolidin-1-yl)-1,5-naphthyridin-4-yl)amino)cyclopentane-1-ol] | < 10 | < 50 | < 10 | < 50 |  |
| O=C1N(c2ccnc3ccc(N4C[C@@H](F)C[C@@H]4c4cc(F)ccc4F)nc23)CC12CCNCC2 [Example 94, 2-(6-((2R,4S)-2-(2,5-difluorophenyl)-4-fluoropyrrolidin-1-yl)-1,5-naphthyridin-4-yl)-2,7-diazaspiro[3.5] nonane-1-one] | < 1 | < 1 | < 1 | < 1 |  |
| O=c1n(-c2ccnc3ccc(N4C[C@@H](F)C[C@@H]4c4cc(F)ccc4F)nc23)ccn1C1CCNCC1 [Example 95, 1-(6-((2R,4S)-2-(2,5-difluorophenyl)-4-fluoropyrrolidin-1-yl)-1,5-naphthyridin-4-yl)-3-(piperidin-4-yl)-1,3-dihydro-2H-imidazol-2-one] | < 1 | < 10 | < 1 | < 1 |  |

Other lines, results leading:

| IC50 (Recombinant human TRKA) [nM] | IC50 (Recombinant human TRKB) [nM] | IC50 (Recombinant human TRKC) [nM] | IC50 [1] [nM] | IC50 [2] [nM] | Compound |
| --- | --- | --- | --- | --- | --- |
| < 1 | < 1 | < 1 | < 1 | < 1 | Fc1ccc(F)c([C@H]2C[C@H](F)CN2c2ccc3ncc(Cl)c(-c4noc(C5CCNCC5)n4)c3n2)c1 [Example 51, 3-(3-Chloro-6-((2R,4S)-2-(2,5-difluorophenyl)-4-fluoropyrrolidin-1-yl)-1,5-naphthyridine-4-yl)-5-(piperidin-4-yl)-1,2,4-oxadiazole] |
| < 10 | < 10 | < 10 | < 10 | < 10 | OC1CCC(Nc2ccnc3ccc(N4C[C@@H](F)C[C@@H]4c4cc(F)ccc4F)nc23)C1 (stereo partly drawn) [Example 2, 3-((6-((2R,4S)-2-(2,5-difluorophenyl)-4-fluoropyrrolidin-1-yl)-1,5-naphthyridin-4-yl)amino)cyclopentan-1-ol] |
| < 1 | < 1 | < 10 | < 1 | < 1 | CN1CC(n2cc(-c3c(Cl)cnc4ccc(N5C[C@@H](F)C[C@@H]5c5cc(F)ccc5F)nc34)cn2)C1 [Example 23] |
| < 1 | < 1 | < 1 | < 1 | < 1 | OCCN1CCC(n2cc(-c3c(Cl)cnc4ccc(N5C[C@@H](F)C[C@@H]5c5cc(F)ccc5F)nc34)cn2)CC1 [Example 32, 2-(4-(4-(3-chloro-6-((2R,4S)-2-(2,5-difluorophenyl)-4-fluoropyrrolidin-1-yl)-1,5-naphthyridin-4-yl)-1H-pyrazol-1-yl)piperidin-1-yl)ethan-1-ol] |
| < 1 | < 10 | < 10 | < 1 | < 50 | O[C@H]1CCN(c2nc(-c3c(F)cnc4ccc(N5C[C@@H](F)C[C@@H]5c5cc(F)ccc5F)nc34)no2)C1 [Example 77, (S)-1-(3-(6-((2R,4S)-2-(2,5-difluorophenyl)-4-fluoropyrrolidin-1-yl)-3-fluoro-1,5-naphthyridin-4-yl)-1,2,4-oxadiazol-5-yl)pyrrolidin-3-ol] |
| < 1 | < 10 | < 10 | < 10 |  | O[C@H]1CCN(c2nc(-c3ncnc4ccc(N5C[C@@H](F)C[C@@H]5c5cc(F)ccc5F)nc34)no2)C1 [Example 68, (S)-1-(3-(6-((2R,4S)-2-(2,5-difluorophenyl)-4-fluoropyrrolidin-1-yl)pyrido[3,2-d]pyrimidin-4-yl)-1,2,4-oxadiazol-5-yl)pyrrolidin-3-ol] |
| < 1 | < 10 | < 1 | < 10 |  | Fc1ccc(F)c([C@H]2C[C@H](F)CN2c2ccc3ncnc(-c4cn(C5CCNCC5)nn4)c3n2)c1 [Example 86, 6-((2R,4S)-2-(2,5-Difluorophenyl)-4-fluoropyrrolidin-1-yl)-4-(1-(piperidin-4-yl)-1H-1,2,3-triazol-4-yl)pyrido[3,2-d]pyrimidine] |
| < 1 | < 10 | < 10 | < 10 |  | Fc1ccc(F)c([C@H]2C[C@H](F)CN2c2ccc3ncc(F)c(-c4cn(C5CCNCC5)nn4)c3n2)c1 [Example 83, 2-((2R,4S)-2-(2,5-difluorophenyl)-4-fluoropyrrolidin-1-yl)-7-fluoro-8-(1-(piperidin-4-yl)-1H-1,2,3-triazol-4-yl)-1,5-naphthyridine] |
| < 1 | < 10 | < 10 | < 10 |  | Fc1ccc(F)c([C@H]2C[C@H](F)CN2c2ccc3ncnc(-c4noc(C5CCNCC5)n4)c3n2)c1 [Example 81, 3-(6-((2R,4S)-2-(2,5-difluorophenyl)-4-fluoropyrrolidin-1-yl)pyrido[3,2-d]pyrimidin-4-yl)-5-(piperidin-4-yl)-1,2,4-oxadiazole] |
| < 1 | < 1 | < 1 | < 1 |  | O=C(O)[C@@H]1CCN(c2ncc(-c3ncnc4ccc(N5C[C@@H](F)C[C@@H]5c5cc(F)ccc5F)nc34)cn2)C1 [Example 88, (R)-1-(5-(6-((2R,4S)-2-(2,5-difluorophenyl)-4-fluoropyrrolidin-1-yl)pyrido[3,2-d]primidin-4-yl)pyrimidin-2-yl)pyrrolidin-3-carboxylic acid] |
